US20250059205A1, “Heterocyclic Compounds and Methods of Use” (AMGEN INC., priority 2021, published 2025)

What was measured:
[1] = target: His-tagged KRAS G12D protein (Homo sapiens, UniProt P01116, G12D); test: KRAS G12D TR-FRET Assay; assay type: binding
[2] = target: GDP-bound KRAS protein (aa 1-169), containing both G12D and C118A amino acid substitutions (Homo sapiens, UniProt P01116, C118A/G12D); test: KRAS G12D Coupled Nucleotide Exchange Assay; assay type: biochemical; settings: 2 h compound pre-incubation
Chain of GDP-bound KRAS protein (aa 1-169), containing both G12D and C118A amino acid substitutions (P01116 1-169 isoform P01116-2 G12D/C118A): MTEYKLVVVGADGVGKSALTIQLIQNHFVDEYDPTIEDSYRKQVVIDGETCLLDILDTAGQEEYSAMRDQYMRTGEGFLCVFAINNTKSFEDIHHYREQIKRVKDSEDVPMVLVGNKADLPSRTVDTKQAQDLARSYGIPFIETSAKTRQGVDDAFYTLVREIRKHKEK
Description: Following compound pre-incubation, purified SOS protein (aa 564-1049) and GTP (Roche 10106399001) were added to the assay wells and incubated for an additional 30 min. […] The assay plates were then read on a PerkinElmer EnVision Multilabel Reader, using AlphaScreen® technology, and data were analyzed using a 4-parameter logistic model to calculate IC50 values.

[3] = test system: Phosphorylation of ERK1/2 in A-427 cells; test: Phospho-ERK1/2 MSD Assay (A-427 cells); assay type: cell-based; settings: Homo sapiens, A-427, 2 h, 2 h treatment, read-out: p-ERK (A427 cells) IC50
Outline: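 ERK1/2 phosphorylation measured by Meso Scale whole-cell lysate assay after A-427 cells were exposed to a titration of compound for 2 h at 37 °C.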

[4] = test system: Phosphorylation of ERK1/2 in AsPC-1 cells; test: Phospho-ERK1/2 MSD Assay (AsPC-1 cells); assay type: cell-based; settings: Homo sapiens, ASPC1, 2 h, 2 hours treatment, read-out: p-ERK (AsPC-1 cells) IC50
Outline: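 Read-out: MSD electrochemiluminescent detection of phosphorylated ERK1/2 in whole-cell lysates, fitted to a 4-parameter logistic curve for IC50. Prior to lysis, AsPC-1 cells (25,000 per well) received a 2 h compound dose-response at 37 °C.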

Chain of His-tagged KRAS G12D protein (P01116 1-188 isoform P01116-2 G12D): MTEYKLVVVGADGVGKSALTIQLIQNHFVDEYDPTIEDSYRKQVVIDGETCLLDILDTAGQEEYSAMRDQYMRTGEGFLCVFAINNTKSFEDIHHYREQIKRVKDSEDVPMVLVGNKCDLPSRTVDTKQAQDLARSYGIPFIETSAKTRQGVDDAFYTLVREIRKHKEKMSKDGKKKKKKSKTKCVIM

Row | Structure (SMILES) | IC50 [1] [nM] | Avg 2 h Coupled Exchange IC50 [2] [nM] | IC50 [3] [nM] | IC50 [4] [nM]
1 | Cc1cccc2cccc(-c3c(F)cc4c(N5[C@@H]6CC[C@H]5CNC6)nc(OC[C@@]56CCCN5C[C@H](F)C6)nc4c3F)c12 [Example 23, 4-((1R,5S)-3,8-diazabicyclo[3.2. 1]octan-8-yl)-6,8-difluoro-2-(((2R,7aS)-2-fluorotetrahydro-1H-pyrrolizin-7a(5H)-yl)methoxy)-7-(8-methylnaphthalen-1-yl)quinazoline] | 44 | 19 | 10300 | 2600
2 | Fc1c(-c2cccc3cccc(Cl)c23)ccc2c(N3[C@@H]4CC[C@H]3CNC4)nc(OC[C@@]34CCCN3C[C@H](F)C4)nc12 [Example 24, 4-((1R,5S)-3,8-diazabicyclo[3.2. 1]octan-8-yl)-7-(8-chloronaphthalen-1-yl)-8-fluoro-2-(((2R,7aS)-2-fluorotetrahydro-1H-pyrrolizin-7a(5H)-yl)methoxy) quinazoline] | 31 | 16 | 3910 | 1390
3 | Oc1cc(-c2ccc3c(N4[C@@H]5CC[C@H]4CNC5)nc(OC[C@@]45CCCN4C[C@H](F)C5)nc3c2F)c2ncccc2c1 [Example 25, 8-(4-((1R,5S)-3,8-diazabicyclo[3.2. 1]octan-8-yl)-8-fluoro-2-(((2R,7aS)-2-fluorotetrahydro-1H-pyrrolizin-7a(5H)-yl)methoxy)quinazolin-7-yl)quinolin-6-ol] | 58 | 17 | 5050 | 14800
4 | Nc1cc(-c2ccc3c(N4[C@@H]5CC[C@H]4CNC5)nc(OC[C@@]45CCCN4C[C@H](F)C5)nc3c2F)c2ccccc2c1 [Example 26, 4-(4-((1R,5S)-3,8-diazabicyclo[3.2. 1]octan-8-yl)-8-fluoro-2-(((2R,7aS)-2-fluorotetrahydro-1H-pyrrolizin-7a(5H)-yl)methoxy)quinazolin-7-yl)naphthalen-2-amine] | 34 | 18 | 1110 | 692
5 | Oc1cc(-c2c(F)cc3c(N4[C@@H]5CC[C@H]4CNC5)nc(OC[C@@]45CCCN4C[C@H](F)C5)nc3c2F)c2ncccc2c1 [Example 27, 8-(4-((1R,5S)-3,8-diazabicyclo[3.2. 1]octan-8-yl)-6,8-difluoro-2-(((2R,7aS)-2-fluorotetrahydro-1H-pyrrolizin-7a(5H)-yl)methoxy)quinazolin-7-yl)quinolin-6-ol] | 47 | 21 | 865 | 5230
6 | Cc1cccc2cccc(-c3ccc4c(N5[C@@H]6CC[C@H]5CNC6)nc(OC[C@@]56CCCN5C[C@H](F)C6)nc4c3F)c12 [Example 28, 4-((1R,5S)-3,8-diazabicyclo[3.2. 1]octan-8-yl)-8-fluoro-2-(((2R,7aS)-2-fluorotetrahydro-1H-pyrrolizin-7a(5H)-yl)methoxy)-7-(8-methylnaphthalen-1-yl)quinazoline] | 90 | 44 | > 10000 | 3610
7 | Oc1cc(-c2ccc3c(N4[C@@H]5CC[C@H]4CNC5)nc(OC[C@@]45CCCN4C[C@H](F)C5)nc3c2F)c2cccnc2c1 [Example 29, 5-(4-((1R,5S)-3,8-diazabicyclo[3.2. 1]octan-8-yl)-8-fluoro-2-(((2R,7aS)-2-fluorotetrahydro-1H-pyrrolizin-7a(5H)-yl)methoxy)quinazolin-7-yl)quinolin-7-ol] | 161 | 80 | > 10000 | 10000
8 | CN1C[C@H](F)C[C@H]1COc1nc(N2[C@@H]3CC[C@H]2CNC3)c2cc(F)c(-c3cc(O)cc4cccnc34)c(F)c2n1 [Example 30, 8-(4-((1R,5S)-3,8-diazabicyclo[3.2. 1]octan-8-yl)-6,8-difluoro-2-(((2S,4R)-4-fluoro-1-methylpyrrolidin-2-yl)methoxy)quinazolin-7-yl)quinolin-6-ol] | 559 | 158 | 17700 | 21500
9 | Cc1c(-c2cc(O)cc3ccccc23)ccc2c(N3C[C@H]4CC[C@@H](C3)N4)nc(OC[C@@]34CCCN3C[C@H](F)C4)nc12 [Example 33, 4-(4-((1R,5S)-3,8-diazabicyclo[3.2. 1]octan-3-yl)-2-(((2R,7aS)-2-fluorotetrahydro-1H-pyrrolizin-7a(5H)-yl)methoxy)-8-methylquinazolin-7-yl)naphthalen-2-ol] | 8 | 3 | 291 | 509
10 | Cc1c(-c2cc(O)cc3ccccc23)ccc2c(N3[C@@H]4CC[C@H]3CNC4)nc(OC[C@@]34CCCN3C[C@H](F)C4)nc12 [Example 34, 4-(4-((1R,5S)-3,8-diazabicyclo[3.2. 1]octan-8-yl)-2-(((2R,7aS)-2-fluorotetrahydro-1H-pyrrolizin-7a(5H)-yl)methoxy)-8-methylquinazolin-7-yl)naphthalen-2-ol] | 47 | 22 | 2570 | 2980
11 | Oc1ccc(Cl)c(-c2ccc3c(N4C[C@H]5CC[C@@H](C4)N5)nc(OC[C@@]45CCCN4C[C@H](F)C5)nc3c2)c1F [Example 36, 3-(4-((1R,5S)-3,8-diazabicyclo[3.2. 1]octan-3-yl)-2-(((2R,7aS)-2-fluorotetrahydro-1H-pyrrolizin-7a(5H)-yl)methoxy)quinazolin-7-yl)-4-chloro-2-fluorophenol] | 483 | 82 | > 10000 | > 10000
12 | Cc1cc2[nH]ncc2c(-c2ccc3c(N4[C@@H]5CC[C@H]4CNC5)nc(OC[C@@]45CCCN4C[C@H](F)C5)nc3c2)c1Cl [Example 37, 4-((1R,5S)-3,8-diazabicyclo[3.2. 1]octan-8-yl)-7-(5-chloro-6-methyl-1H-indazol-4-yl)-2-(((2R,7aS)-2-fluorotetrahydro-1H-pyrrolizin-7a(5H)-yl)methoxy) quinazoline] | 193 | 73 | > 10000 | 6700
13 | Cc1c(Cl)cc2[nH]ncc2c1-c1ccc2c(N3[C@@H]4CC[C@H]3CNC4)nc(OC[C@@]34CCCN3C[C@H](F)C4)nc2c1 [Example 38, 4-((1R,5S)-3,8-diazabicyclo[3.2. 1]octan-8-yl)-7-(6-chloro-5-methyl-1H-indazol-4-yl)-2-(((2R,7aS)-2-fluorotetrahydro-1H-pyrrolizin-7a(5H)-yl)methoxy) quinazoline] | 195 | 42 | > 10000 | 6310
14 | Cc1cc2[nH]ncc2c(-c2ccc3c(N4C[C@H]5CC[C@@H](C4)N5)nc(OC[C@@]45CCCN4C[C@H](F)C5)nc3c2)c1Cl [Example 39, 4-((1R,5S)-3,8-diazabicyclo[3.2. 1]octan-3-yl)-7-(5-chloro-6-methyl-1H-indazol-4-yl)-2-(((2R,7aS)-2-fluorotetrahydro-1H-pyrrolizin-7a(5H)-yl)methoxy) quinazoline] | 20 | 9 | 569 | 1890
15 | Cc1c(Cl)cc2[nH]ncc2c1-c1ccc2c(N3C[C@H]4CC[C@@H](C3)N4)nc(OC[C@@]34CCCN3C[C@H](F)C4)nc2c1 [Example 40, 4-((1R,5S)-3,8-diazabicyclo[3.2. 1]octan-3-yl)-7-(6-chloro-5-methyl-1H-indazol-4-yl)-2-(((2R,7aS)-2-fluorotetrahydro-1H-pyrrolizin-7a(5H)-yl)methoxy) quinazoline] | 11 | 6 | 686 | 2390
16 | Oc1cc(-c2ccc3c(N4C[C@H]5CC[C@@H](C4)N5)nc(OC[C@@]45CCCN4C[C@H](F)C5)nc3c2)c2ccccc2c1 [Example 41, 4-(4-((1R,5S)-3,8-diazabicyclo[3.2. 1]octan-3-yl)-2-(((2R,7aS)-2-fluorotetrahydro-1H-pyrrolizin-7a(5H)-yl)methoxy)quinazolin-7-yl)naphthalen-2-ol] | 2 | 2 | 74 | 182
17 | Oc1cc(-c2cc3nc(OC[C@@]45CCCN4C[C@H](F)C5)nc(N4C[C@H]5CC[C@@H](C4)N5)c3cc2F)c2ccccc2c1 [Example 42, 4-(4-((1R,5S)-3,8-diazabicyclo[3.2. 1]octan-3-yl)-6-fluoro-2-(((2R,7aS)-2-fluorotetrahydro-1H-pyrrolizin-7a(5H)-yl)methoxy)quinazolin-7-yl)naphthalen-2-ol] | 3 | 3 | 77 | 223
18 | Oc1cc(-c2ccc3c(N4C[C@H]5CC[C@@H](C4)N5)nc(OC[C@]45CCCN4C[C@H](F)C5)nc3c2F)c2ccccc2c1 [Example 44, 4-(4-((1R,5S)-3,8-diazabicyclo[3.2. 1]octan-3-yl)-8-fluoro-2-(((2R,7aR)-2-fluorotetrahydro-1H-pyrrolizin-7a(5H)-yl)methoxy)quinazolin-7-yl)naphthalen-2-ol] | 2 | 2 | 19 | 114
